Assay results taken from paper PMC6381024, “Probing Anti-inflammatory Properties Independent of NF-κB Through Conformational Constraint of Peptide-Based Interleukin-1 Receptor Biased Ligands” (Frontiers in Chemistry, 2019).
“Also recorded” adds a separate entry of the source.

Tests used:
[1] = test system: pregnant CD-1 mice; assay: LPS-induced preterm birth (PTB) model in mice; assay type: in vivo, mouse; parameters: key to In vivo PTB (heatmap grade of efficacy): 0: No effect; No effect 01234 Maximum inhibition/efficacy; No effect 01234 Maximum inhibition/efficacy; No effect 01234 Maximum inhibition/efficacy; 4: Maximum inhibition/efficacy; settings: for In vivo PTB (heatmap grade of efficacy): LPS 10 μg i.p. at G16.5, peptide 2 mg/kg/day s.c. every 12 h; for Activity in delaying labor in the PTB model: LPS i.p. at G16.5, 2 mg/kg/day s.c.
Procedure: Timed-pregnant CD-1 mice at 16.5 days of gestation (G16.5) were anesthetized with 2% isoflurane and received an intraperitoneal injection of LPS (n = 4 per group, a single dose of 10 μg) (Nadeau-Vallée et al., [2015], and Kakinuma et al., [1997]). A dosage of 2 mg/kg/day of peptide 1, 5, or 6 or vehicle was injected subcutaneously in the neck, every 12 h until delivery. On G16.5, a dose of 1 mg/kg was injected 30 min before stimulation with LPS (to allow distribution of drugs to target tissues) and 1 mg/kg was injected 12 h after stimulation (n = 4 each treatment). Mice delivery was assessed every hour until term (G19–G19.5). A mouse is considered as delivering prematurely if the first pup is delivered earlier than G18.5.
Figure 9 The effects of peptides 1, 5, and 6 on prevention of PTB. (A) Schematic of the CD-1 mouse PTB model. In brief, pregnant dams on day 16.5 of gestation (G16.5) were subcutaneously pretreated with peptides 1, 5, and 6 or vehicle, followed by LPS, and observed for delivery of pups. A dam was considered as delivering preterm if at least one pup was delivered before G18.5. (B) The rates of PTB in dams treated with peptides 1, 5, and 6 are grouped into (3R)- (left) and (3S)- (right) derivatives; n = 4–5 dams per treatment group.

[2] = test system: IL-1R; assay: Radioligand displacement of [125I]-peptide 1 in RAW-Blue macrophage cells; assay type: binding; settings: for Percentage of displacement of [125I]-1, relative to unlabeled peptide 1, ±SEM: 100 μM cold peptide pre-incubated 20 min, then 600 nM [125I]-peptide 1 for 2 h at 37°C, gamma counter, mean ± SEM, three independent experiments
Procedure: Displacement of radiolabeled peptide 1 was performed as described previously (Quiniou et al., [2008]). Briefly, RAW-Blue macrophage cells (InVivogen; San Diego, CA) were pre-incubated for 20 min with 100 μM of non-radiolabeled (“cold”) peptide 1, 5, or 6 followed by incubation for 2 h at 37°C with [^125I]-peptide 1 at 600 nM concentration to ensure maximal specific binding (Quiniou et al., [2008]). Cells were washed four times with PBS buffer and lysed with 0.1 N NaOH/0.1% Triton X-100. Bound radioactivity was measured on cell lysates with a Hidex AMG gamma counter (Hidex; Turku Finland). Data are representative of three independent experiments.
Peptide 1 is known to bind to IL-1R (Quiniou et al., [2008]). To determine if the Agl and Hgl derivatives occupied the same binding site as peptide 1, a radio-ligand displacement assay was used to determine the extent to which peptides 5 and 6 displaced radiolabeled 1.

[3] = test system: ROCK2; assay: IL-1β-induced ROCK2 phosphorylation, Western blot in RAW Blue cells; assay type: cell-based; parameters: key to Western Blot ROCK2 (heatmap grade of inhibition): 0: No effect; No effect 01234 Maximum inhibition/efficacy; No effect 01234 Maximum inhibition/efficacy; No effect 01234 Maximum inhibition/efficacy; 4: Maximum inhibition/efficacy; settings: for Western Blot ROCK2 (heatmap grade of inhibition): RAW Blue cells, peptide 10^-6 M or Kineret 1.0 mg/mL 30 min, then IL-1β 100 ng/mL 15 min
Procedure: RAW Blue cells (Invivogen) were grown under standard conditions (37°C, 5% CO2) and maintained under passage number 15. Cells were equilibrated with 1, 5, or 6 (10^−6M) or Kineret (1.0 mg/mL) for 30 min, after which time they were exposed to IL-1β (100 ng/mL) for 15 min. Cells were harvested and lysed on ice for 30 min using a radioimmunoprecipitation assay buffer (Cell Signaling) supplemented with 1 mM phenylmethylsulfonyl fluoride (PMSF) and cOmplete™ EDTA-free protease inhibitor cocktail (Roche, Mannheim, Germany, prepared according to the manufacturer's instructions). Protein concentrations were determined using a Bradford protein assay (Bio-Rad) on 96-well plates with a microplate reader (EnVision Multilabel reader) measuring OD at […]. Bovine serum albumin serial dilutions were used to generate a standard curve. Lysates were then mixed with 4X reducing sample buffer (Bio-Rad).
Lysates were loaded (30 μg protein per well) in a 5% acrylamide stacking gel, and samples were electrophoresed in a 12% acrylamide resolving gel for 1.5 h at 120 V, followed by a 1 h transfer onto polyvinylidene difluoride (PDVF) membranes at 100 V. Membranes were blocked and incubated with 1:1,000 dilution of primary antibody and 1:20,000 dilution of secondary antibodies according to the manufacturer's instructions. Antibodies used were for phospho-p38 MAPK (Cell Signaling, #9211), p38 MAPK (Cell Signaling, #9212), SAPK/JNK (Cell Signaling, #9252), phospho-SAPK/JNK (Cell Signaling, #9251), ROCK2 (Thermo Fisher Scientific PA5-21131), phospho-ROCK2 (Thermo Fisher Scientific PA5-34895), and goat anti-rabbit conjugated to horseradish peroxidase (Abcam, ab6721). Membranes were imaged using an Amersham Imager 600 (GE Healthcare) using Clarity Western ECL Substrate (Bio-Rad). The intensity of protein bands was quantified using ImageJ and standardized using total (phosphorylated + non-phosphorylated) protein content. Data are representative of three independent experiments.
Figure 7 The effects of peptides 1, 5, and 6 on IL-1β-induced phosphorylation of JNK, ROCK2, and p38. Graphical representations of band density analysis of Western Blots, sorted into columns based on protein of interest (JNK, ROCK2, or p38) and rows by peptide configuration [(3R-) or (3S)]. RAW-blue cells were pretreated with peptides 1, 5, 6, Kineret, or vehicle for 30 min and then stimulated with IL-1β for 15 min. Images of representative Western Blots can be found in the Supplementary Figure 1. Results shown are the average of 3 independent experiments: ^*p < 0.05, ^**p < 0.01, ^***p < 0.001, ^****p < 0.0001 compared to group treated only with IL-1β. Treatment groups that are not labeled with asterisks are statistically non-significant compared to group treated only with IL-1β.

| Substance | In vivo PTB (heatmap grade of efficacy) [1] | Percentage of displacement of [125I]-1, relative to unlabeled peptide 1, ±SEM [2] | Western Blot ROCK2 (heatmap grade of inhibition) [3] | Activity in delaying labor in the PTB model [1] | Capacity to displace [125I]-1 compared to cold unlabeled peptide 1 ([2]; 100 μM cold peptide, 600 nM [125I]-peptide 1) | Inhibition of IL-1β-induced ROCK2 phosphorylation ([3]; RAW-blue cells, 10^-6 M, 30 min, then IL-1β 15 min) |
| --- | --- | --- | --- | --- | --- | --- |
| H-D-Arg-D-Tyr-(3R,4R)-Hgl-(S)-Val-D-Glu-D-Leu-D-Ala-NH2 [[(3R,4R)-Hgl^3-(S)-Val^4]-1] | 0 | 82.12 ± 14.12% | 4 |  |  |  |
| H-D-Arg-D-Tyr-(3R,4R)-Hgl-D-Val-D-Glu-D-Leu-D-Ala-NH2 [[(3R,4R)-Hgl^3]-1] | 0 | 104.6 ± 6.826% | 4 |  |  |  |
| H-D-Arg-D-Tyr-(3R,4S)-Hgl-(S)-Val-D-Glu-D-Leu-D-Ala-NH2 [[(3R,4S)-Hgl^3-(S)-Val^4]-1] | 2 | 58.63 ± 13.45% | 2 |  |  |  |
| H-D-Arg-D-Tyr-(3R,4S)-Hgl-D-Val-D-Glu-D-Leu-D-Ala-NH2 [[(3R,4S)-Hgl^3]-1] | 4 | 32.13 ± 16.94% | 4 | best activity | significantly lower (p = 0.0011) ability to compete with radiolabeled peptide 1 |  |
| H-D-Arg-D-Tyr-(3S,4R)-Hgl-D-Val-D-Glu-D-Leu-D-Ala-NH2 [[(3S,4R)-Hgl^3]-1] | 4 | 78.64 ± 21.22% | 3 | best activity |  |  |
| H-D-Arg-D-Tyr-(R)-Agl-(S)-Val-D-Glu-D-Leu-D-Ala-NH2 [[(3R)-Agl^3-(S)-Val^4]-1] | 0 | 120.7 ± 15.69% | 2 |  |  |  |
| H-D-Arg-D-Tyr-(R)-Agl-D-Val-D-Glu-D-Leu-D-Ala-NH2 [[(3R)-Agl^3]-1] | 4 | 83.55 ± 9.02% | 0 | high potency; also recorded: best activity |  |  |
| H-D-Arg-D-Tyr-(S)-Agl-(S)-Val-D-Glu-D-Leu-D-Ala-NH2 [[(3S)-Agl^3-(S)-Val^4]-1] | 0 | 102.7 ± 8.637% | 3 |  |  |  |
| H-D-Arg-D-Tyr-(S)-Agl-D-Val-D-Glu-D-Leu-D-Ala-NH2 [[(3S)-Agl^3]-1] | 4 | 106.6 ± 12.39% | 0 | high potency; also recorded: best activity |  |  |
| H-D-Arg-D-Tyr-D-Thr-D-Val-D-Glu-D-Leu-D-Ala-NH2 [Peptide 1] | 4 |  | 4 |  |  | inhibited the effects of all three kinases |
| Kineret: FDA-approved recombinant IL-1 receptor antagonist | 0 |  | 4 |  |  |  |
